# Measured values: patent US5432195A, “Benzofuran derivative and pharmaceutical composition” (Nippon Shinyaku Company Limited, priority 1991, dated 1995)
# Counter-ions that a name gives are not always drawn.
# Columns and labels:
# [1] = test system: fatty acid synthesis (liver slices of rat); experiment: lipid biosynthesis by tissue slices of liver of rat: fatty acid synthesis; type: cell-based; conditions: 10 μg/ml, percentage to the control; for activity at 10 µg/mL: Rattus norvegicus, 2 h, read-out: Fatty Acid Synth.; for Fatty Acid Synth.: 120 min
# Protocol: (§1) 5) Action of the compounds of the present invention to lipid biosynthesis by tissue slices of liver of rat
# (§2) Test method: Krebs-Ringer-Bicarbonate solution (1 ml) containing 1 mM of ^14 C-acetic acid and 10 μg/ml of the test substance was added to 100 mg of liver slices of rat, the air was substituted with a mixed gas (oxygen:carbon dioxide=95:5) and incubation was conducted at 37° C. for 2 hours. After completion of the reaction, 15% ethanolic solution of potassium hydroxide was added and saponification was conducted at 75° C. for 2 hours. A part of the saponified solution was subjected to a measurment of protein. Residual saponified solution was extracted with petroleum ether and the radioactivity of the petroleum ether layer was measured to determine the cholesterol synthesizing activity. The aqueous layer was acidified with 6N hydrochloric acid, extracted with petroleum ether and the radioactivity of the extract was measured to determine fatty acid synthesizing activity. The values were expressed in terms of percentage to the control after calculating the mol numbers (nmol/mg) of the ^14 C-acetic acid incorporated into each extract per protein (nmol/mg protein).
# [2] = test system: cholesterol synthesis (liver slices of rat); experiment: lipid biosynthesis by tissue slices of liver of rat: cholesterol synthesis; type: cell-based; conditions: 10 μg/ml, percentage to the control; for activity at 10 µg/mL: Rattus norvegicus, 2 h, read-out: Cholesterol Synth.; for Cholesterol Synth.: 120 min
# Protocol: as §1, §2
# [3] = test system: total cholesterol (TC) in serum; experiment: lowering total cholesterol (TC) in serum using normal rhesus monkeys; type: in vivo; conditions: oral
# Excerpt: 1) An action of lowering total cholesterol (TC) in serum using normal rhesus monkeys. Test Method: Male rhesus monkeys of 2-5 years age (body weight: 3.0-6.4 kg; Experiment No.1) or male rhesus monkeys of 2-6 years age (body weight: 3.5-8.0 kg; Expt. Nos. 2, 3 and 4) were subjected to the experiments. During the experiment, solid feed (manufactured by Oriental Yeast) was given at the dose of 150 g once daily. Each group consisted of 2 to 6 monkeys. The substance to be tested was in a form of suspension in 0.5% methylcellulos solution. The suspension was given orally using rubber probe at the dose of 30, 50 or 100 mg/kg for seven days (Expt. Nos. 1 and 2(2)) or for 28 days (Expt. Nos. 2(1), 3 and 4). Blood was taken from saphena in lower limbs one week and immediately before the administration and also 7, 14, 21 and 28 days after the administration of the suspension whereby serum TC was measured. The change rate of serum TC was calculated by the following expression. The change rate of serum TC=(ATC-BTC)/BTC×100 In the expression, ATC is the TC after administration of the substance tested while BTC is the TC before the administration (average of those one week and immediately before the administration).
# [4] = test system: serum TC; experiment: Serum TC lowering action in normal crab-eating macaques; type: in vivo
# Excerpt: 2) Serum TC lowering action in normal crab-eating macaques.
# Test Method: Male crab-eating macaques (body weight: 2.5-6.6 kg) were subjected to the experiments. During the expriment period, the feed (manufactured by Oriental Yeast) containing 0.1% (Expt. No. 1) or 0.3% (Expt. No. 2) of the compound of Example 4 was given once daily a 35 g/kg for 5 weeks (0.1%) or for 8 weeks (0.3%). Usual feed for monkeys was given to the control group. Blood was taken immediately before the administration and 1, 2 and 5 weeks after the administration in the case of 0.1% mixed feed or, in the case of 0.3% mixed feed, immediately before and 2, 4, 6 and 8 weeks after the administration. All operations for taking blood were conducted prior to giving the feed and the serum TC therein was measured. The change rate of the serum TC was calculated by the following expression.
# The change rate of serum TC=(ATC-BTC)/BTC×100
# In the expression, ATC is the TC after administration of the substance tested and BTC is the TC immediately before administration.
# [5] = test system: Lp(a); experiment: Influence on Lp(a): lowering Lp(a) in plasma in crab-eating monkeys; type: in vivo; conditions: 0.3% in feed, average ± S.E.
# Protocol: Five to six crab-eating monkeys (male; body weight ranging 5-9 kg) as one group were fed and, to the group administered with the test sample, the feed containing 0.3% of this invention compound (that of Example 4) was fed while, to the control group, usual feed was given. The Lp(a) concentrations in the plasma were measured by the following method at the initiation of the administration, 13 weeks thereafter and 5 weeks after completion of the administration.
# Commercially-available kit manufactured by Biopool Co, was used. In accordance with the procedures as given in the kit, PET buffer and sample buffer were prepared. To 20 μl of the plasma was added 1 ml of sample buffer and to 10 μl or 20 μl the resulting diluted liquid was further added 1.01 ml or 1 ml of the sample buffer to that the liquid diluted to an extent of 5202 times or 2601 times was prepared. In accordance with the steps as instructed by the kit, each 20 μl of the diluted sample was added to each well and measurement was conducted by duplicate. The result was calculated from the working curve prepared from the data obtained for the standard human Lp(a) in the kit.
# [6] = test system: Mice of ddY-strain; experiment: Acute Toxicity; type: in vivo; conditions: oral, 2 g/kg
# Protocol: Mice of ddY-strain (7 weeks age; four mice per group) were fasted overnight, the compound of Example 4 of the present invention suspended in 0.5% methylcellulose solution was orally administered at 2 g/kg and the general symptoms until 3 hours after that and those until one week thereafter were checked.
# [7] = test system: cholesterol synthesis (liver slices of rat); experiment: lipid biosynthesis of tissue slices of liver of rat (part 2): cholesterol synthesis; type: cell-based; conditions: 2 h, 10 μg/ml, percentage to the control
# Protocol: as §2
# (§3) 6) Action of the compounds of the present invention to lipid biosynthesis of tissue slices of liver of rat (part 2)
# (§4) The activity of the present invention compound was measured by the same manner as above 5). The values were expressed in terms of percentage to the control after calculating the mol numbers (nmol/mg) of the ^14 C-acetic acid incorporated into each extract per protein (nmol/mg protein).
# [8] = test system: fatty acid synthesis (liver slices of rat); experiment: lipid biosynthesis of tissue slices of liver of rat (part 2): fatty acid synthesis; type: cell-based; conditions: 2 h, 10 μg/ml, percentage to the control
# Protocol: as §2, §3, §4
# [9] = test system: Lp(a); conditions: J. Internal Medicine 226 271-276 (1989); cited from earlier work
smiles,measurement,setting,value
"CC(C)(C)c1ccc2oc(C(O)COc3ccc(C(=O)O)cc3)cc2c1 (single isomer, unassigned; (+)) [Example 11, (+)-5-tert-Butyl-2-[2-(4-carboxyphenoxy)-1-hydroxyethyl]benzofuran]",activity at 10 µg/mL,[1]; Expt. 1,12%
same,activity at 10 µg/mL,[1]; Expt. 2,18%
same,activity at 10 µg/mL,[2]; Expt. 1,35%
same,activity at 10 µg/mL,[2]; Expt. 2,24%
"CC(C)(C)c1ccc2oc(C(O)COc3ccc(C(=O)O)cc3)cc2c1 (single isomer, unassigned; (-)) [Example 12, (-)-5-tert-Butyl-2-[2-(4-carboxyphenoxy)-1-hydroxyethyl]benzofuran]",Fatty Acid Synth.,[1]; Expt. 1,16%
same,Fatty Acid Synth.,[1]; Expt. 2,14%
same,Cholesterol Synth.,[2]; Expt. 1,33%
same,Cholesterol Synth.,[2]; Expt. 2,27%
"CC(C)(Oc1ccc(CCNC(=O)c2ccc(Cl)cc2)cc1)C(=O)O [Bezafibrate, reference compound]",TC Change Rate,"[3]; 100 mg/kg, after 7 days",-13%
same,TC Change Rate,"[3]; 100 mg/kg, after 14 days",-10%
same,TC Change Rate,"[3]; 100 mg/kg, after 21 days",3%
same,TC Change Rate,"[3]; 100 mg/kg, after 28 days",-7%
"CC(C)(C)c1ccc2oc(C(O)COc3ccc(C(=O)O)cc3)cc2c1 (stereo not shown) [Example 4, 5-tert-Butyl-2-[2-(4-carboxyphenoxy)-1-hydroxyethyl]benzofuran]",activity at 10 µg/mL,[1]; Expt. 1,20%
same,activity at 10 µg/mL,[1]; Expt. 2,12%
same,TC Change Rate,"[4]; 0.1% in the feed, after 1 week",16%
same,TC Change Rate,"[4]; 0.1% in the feed, after 2 weeks",-18%
same,TC Change Rate,"[4]; 0.1% in the feed, after 5 weeks",-31%
same,TC Change Rate,"[4]; 0.3% in the feed, after 2 weeks",-32%
same,TC Change Rate,"[4]; 0.3% in the feed, after 4 weeks",-46%
same,TC Change Rate,"[4]; 0.3% in the feed, after 6 weeks",-42%
same,TC Change Rate,"[4]; 0.3% in the feed, after 8 weeks",-37%
same,Plasma Lp(a),[5]; 5 weeks after completion of administration,60.1 ± 7.9 mg/dL
same,Plasma Lp(a),[5]; 13 weeks thereafter,9.2 ± 1.2 mg/dL
same,Plasma Lp(a),[5]; Immed. after administration (text: at the initiation),73.2 ± 8.5 mg/dL
same,Acute toxicity: deaths,[6]; observed until one week,no animals tested were dead
same,Acute toxicity: general symptoms,[6]; until 3 hours and until one week thereafter,no abnormal symptoms were noticed
same,activity at 10 µg/mL,[2]; Expt. 1,41%
same,activity at 10 µg/mL,[2]; Expt. 2,27%
same,activity at 10 µg/mL,[7],61%
same,activity at 10 µg/mL,[8],29%
"CC(C)c1ccc2oc(C(O)COc3ccc(C(=O)O)cc3)cc2c1 (stereo not shown) [Example 6, 2-[2-(4-Carboxyphenoxy)-1-hydroxyethyl]5-isopropylbenzofuran]",TC Change Rate,"[3]; 100 mg/kg, after 7 days",-42%
"CC(C)c1ccc2oc(C(O)COc3ccc(C(=O)O)cc3)cc2c1 (stereo not shown) [Example 8, 2-[2-(4-Carboxyphenoxy)-1-hydroxyethyl]-5-isopropylbenzofuran sodium salt]",TC Change Rate,"[3]; 50 mg/kg, after 7 days",-31%
same,TC Change Rate,"[3]; 50 mg/kg, after 14 days",-31%
same,TC Change Rate,"[3]; 50 mg/kg, after 21 days",-44%
same,TC Change Rate,"[3]; 50 mg/kg, after 28 days",-51%
"CC(C)c1ccc2oc(C(O)COc3ccc(C(=O)O)cc3)cc2c1 (stereo not shown) [Example 9, 2-[2-(4-Carboxyphenoxy)-1-hydroxyethyl]-5-isopropylbenzofuran calcium salt]",TC Change Rate,"[3]; 30 mg/kg, after 7 days",-19%
same,TC Change Rate,"[3]; 30 mg/kg, after 14 days",-34%
same,TC Change Rate,"[3]; 30 mg/kg, after 21 days",-29%
same,TC Change Rate,"[3]; 30 mg/kg, after 28 days",-24%
"CC(C)c1ccc2oc(C(O)COc3ccc(CO)cc3)cc2c1 (stereo not shown) [Example 10, 2-[1-Hydroxy-2-(4-hydroxymethylphenoxy)ethyl]-5-isopropylbenzofuran]",TC Change Rate,"[3]; 100 mg/kg, after 7 days",-32%
"CC(C)(C)c1ccc2oc(C(=O)COc3ccc(C(=O)O)cc3)cc2c1 [Example 14, 5-tert-Butyl-2-(4-carboxyphenoxyacetyl)benzofuran]",activity at 10 µg/mL,[7],64%
same,activity at 10 µg/mL,[8],32%
"CC(=O)OC(COc1ccc(C(=O)O)cc1)c1cc2cc(C(C)C)ccc2o1 (stereo not shown) [Example 17, 2-[1-Acetoxy-2-(4-carboxyphenoxy)ethyl]-5-isopropylbenzofuran]",activity at 10 µg/mL,[7],66%
same,activity at 10 µg/mL,[8],33%
O=C(O)c1cccnc1 [Nicotinic acid],adverse reactions,[9],flushing
same,concentration of Lp(a) in blood,[9],lowers the concentration of Lp(a) in blood
